pIC50: −log10 of the molar value. Where “and” joins values, the source holds several entries; their conditions need not be identical. Equal values may be shown once.
Target: hSK2 (Homo sapiens, UniProt Q9H2S1)
Test: Assay for compound activity towards hSK channels (86Rb+ efflux)
Format: cell-based
Conditions: 86Rb+ efflux stimulated with calcium ionophore; drug 0.01 to 30 μM in EBSS; read-out: hSK2 Inhibitory Activity
Experimental: 18.1 Assay for Compound Activity Towards hSK Channels Cells expressing small conductance, calcium activated potassium channels, such as SK-like channels were loaded with ^86Rb^+ by culture in media containing ^86RbCl. Following loading, the culture media was removed and the cells were washed in EBSS to remove residual traces of ^86Rb^+. Cells were preincubated with the drug (0.01 to 30 μM in EBSS) and then ^86Rb^+ efflux was stimulated by exposing cells to EBSS solution supplemented with a calcium ionophore, such as ionomycin, in the continued presence of the drug. After a suitable efflux period, the EBSS/ionophore solution was removed from the cells and the ^86Rb^+ content was determined by Cherenkov counting (Wallac Trilux). Cells were then lysed with a SDS solution and the ^86Rb^+ content of the lysate was determined. Percent ^86Rb^+ efflux was calculated according to the following equation: (^86Rb^+ content in EBSS/(^86Rb^+ content in EBSS+^86Rb^+ content of the lysate))×100

NC(=O)c1cnn(-c2ccccc2)c1Nc1cncc(-c2ccccn2)n1 [1-Phenyl-5-(6-pyridin-2-yl-pyrazin-2-ylamino)-1H-pyrazole-4-carboxylic acid amide]
pIC50: 4.52 to 5.52

CCOC(=O)c1cnn(-c2ccccc2)c1Nc1cncc(-c2ccccn2)n1 [1-Phenyl-5-(6-pyridin-2-yl-pyrazin-2-ylamino)-1H-pyrazole-4-carboxylic acid ethyl ester]
pIC50: 4.52 to 5.52

CC(=O)c1sc(Nc2cncc(-c3ccccn3)n2)nc1C [1-[4-Methyl-2-(6-pyridin-2-yl-pyrazin-2-ylamino)-thiazol-5-yl]ethanone]
pIC50: 4.52 to 5.52

O=C1CCCN1c1ccc(Nc2cncc(-c3ccccn3)n2)nc1 [1-[6-(6-Pyridin-2-yl-pyrazin-2-ylamino)-pyridin-3-yl]-pyrrolidin-2-one]
pIC50: > 7.30

O=C1CCCN1c1ccc(Nc2cncc(-c3nccs3)n2)nc1 [1-[6-(6-Thiazol-2-yl-pyrazin-2-ylamino)-pyridin-3-yl]-pyrrolidin-2-one]
pIC50: 6.00 to 7.30

Cc1cnn(-c2cncc(Nc3ccc(N4CCCC4=O)cn3)n2)c1 [1-{6-[6-(4-Methyl-pyrazol-1-yl)-pyrazin-2-ylamino]-pyridin-3-yl}-pyrrolidin-2-one]
pIC50: 6.00 to 7.30

COc1cccc(-c2cncc(-c3cccc(OC)n3)n2)n1 [2,6-Bis-(6-methoxy-pyridin-2-yl)-pyrazine]
pIC50: 4.52 to 5.52

Oc1cccnc1Nc1cncc(-c2ccccn2)n1 [2-(6-Pyridin-2-yl-pyrazin-2-ylamino)-pyridin-3-ol]
pIC50: 4.52 to 5.52

CCOC(=O)c1c[nH]nc1Nc1cncc(-c2ccccn2)n1 [3-(6-Pyridin-2-yl-pyrazin-2-ylamino)-1H-pyrazole-4-carboxylic acid ethyl ester]
pIC50: 4.52 to 5.52

N#Cc1cncnc1Nc1cncc(-c2ccccn2)n1 [4-(6-Pyridin-2-yl-pyrazin-2-ylamino)-pyrimidine-5-carbonitrile]
pIC50: 4.52 to 5.52

CN1CCN(c2ccc(Nc3cncc(-c4ccccn4)n3)nc2)C(=O)C1 [4-Methyl-1-[6-(6-pyridin-2-yl-pyrazin-2-ylamino)-pyridin-3-yl]-piperazin-2-one]
pIC50: 4.52 to 5.52

CCOC(=O)c1sc(Nc2cncc(-c3ccccn3)n2)nc1-c1ccccc1 [4-Phenyl-2-(6-pyridin-2-yl-pyrazin-2-ylamino)-thiazole-5-carboxylic acid ethyl ester]
pIC50: 4.52 to 5.52

NC(=O)c1ncc(-c2ccccn2)nc1Nc1ccccn1 [5-Pyridin-2-yl-3-(pyridin-2-ylamino)-pyrazine-2-carboxylic acid amide]
pIC50: 4.52 to 5.52

NC(=O)c1ccc(Nc2cncc(-c3ccccn3)n2)nc1 [6-(6-Pyridin-2-yl-pyrazin-2-ylamino)-nicotinamide]
pIC50: 4.52 to 5.52

Cn1c(Nc2cncc(-c3ccccn3)n2)nc2ccccc21 [(1-Methyl-1H-benzoimidazol-2-yl)-(6-pyridin-2-yl-pyrazin-2-yl)-amine]
pIC50: 4.52 to 5.52

[O-][n+]1ccccc1Nc1cncc(-c2ccccn2)n1 [(1-Oxy-pyridin-2-yl)-(6-pyridin-2-yl-pyrazin-2-yl)-amine]
pIC50: 4.52 to 5.52

Cc1cc(Nc2cncc(-c3ccccn3)n2)c2ccccc2n1 [(2-Methyl-quinolin-4-yl)-(6-pyridin-2-yl-pyrazin-2-yl)-amine]
pIC50: 4.52 to 5.52

Cc1noc(Nc2cncc(-c3ccccn3)n2)c1C [(3,4-Dimethyl-isoxazol-5-yl)-(6-pyridin-2-yl-pyrazin-2-yl)-amine]
pIC50: 4.52 to 5.52

c1ccc(COc2cccnc2Nc2cncc(-c3ccccn3)n2)cc1 [(3-Benzyloxy-pyridin-2-yl)-(6-pyridin-2-yl-pyrazin-2-yl)-amine]
pIC50: 4.52 to 5.52

Brc1ncc(-c2ccccn2)nc1Nc1ccccn1 [(3-Bromo-6-pyridin-2-yl-pyrazin-2-yl)-pyridin-2-yl-amine]
pIC50: 5.52 to 6.00

FC(F)(F)c1cnc(Nc2cncc(-c3ccccn3)n2)c(Cl)c1 [(3-Chloro-5-trifluoromethyl-pyridin-2-yl)-(6-pyridin-2-yl-pyrazin-2-yl)-amine]
pIC50: 4.52 to 5.52

CCCCCOc1cccnc1Nc1cncc(-c2ccccn2)n1 [(3-Pentyloxy-pyridin-2-yl)-(6-pyridin-2-yl-pyrazin-2-yl)-amine]
pIC50: 4.52 to 5.52

COc1cc(OC)nc(Nc2cncc(-c3ccccn3)n2)n1 [(4,6-Dimethoxy-pyrimidin-2-yl)-(6-pyridin-2-yl-pyrazin-2-yl)-amine]
pIC50: 4.52 to 5.52

CC1CCN(c2ccc(Nc3cncc(-c4ccccn4)n3)nc2)CC1 [(4-Methyl-3,4,5,6-tetrahydro-2H-[1,3′]bipyridinyl-6′-yl)-(6-pyridin-2-yl-pyrazin-2-yl)-amine]
pIC50: 6.00 to 7.30

Cc1ccnc(Nc2cncc(-c3ccccn3)n2)c1[N+](=O)[O-] [(4-Methyl-3-nitro-pyridin-2-yl)-(6-pyridin-2-yl-pyrazin-2-yl)-amine]
pIC50: 4.52 to 5.52

Cc1ccnc(Nc2cncc(-c3ccccn3)n2)c1 [(4-Methyl-pyridin-2-yl)-(6-pyridin-2-yl-pyrazin-2-yl)-amine]
pIC50: > 7.30

Cc1ccnc(Nc2cncc(-c3cc(N4CCCC4)ccn3)n2)c1 [(4-Methyl-pyridin-2-yl)-[6-(4-pyrrolidin-1-yl-pyridin-2-yl)-pyrazin-2-yl]-amine]
pIC50: 6.00 to 7.30

c1ccc(-c2csc(Nc3cncc(-c4ccccn4)n3)n2)cc1 [(4-Phenyl-thiazol-2-yl)-(6-pyridin-2-yl-pyrazin-2-yl)-amine]
pIC50: 4.52 to 5.52

Brc1ccc(Nc2cnc(Br)c(-c3ccccn3)n2)nc1 [(5-Bromo-pyridin-2-yl)-(5-bromo-6-pyridin-2-yl-pyrazin-2-yl)-amine]
pIC50: 4.52 to 5.52

Brc1ccc(Nc2cncc(-c3ccccn3)n2)nc1 [(5-Bromo-pyridin-2-yl)-(6-pyridin-2-yl-pyrazin-2-yl)-amine]
pIC50: 6.00 to 7.30

Clc1ccc(Nc2cncc(-c3ccccn3)n2)nc1 [(5-Chloro-pyridin-2-yl)-(6-pyridin-2-yl-pyrazin-2-yl)-amine]
pIC50: 6.00 to 7.30

Clc1ccc(Nc2cncc(-c3cc(N4CCCC4)ccn3)n2)nc1 [(5-Chloro-pyridin-2-yl)-[6-(4-pyrrolidin-1-yl-pyridin-2-yl)-pyrazin-2-yl]-amine]
pIC50: 5.52 to 6.00

COc1cccc(-c2cncc(Nc3ccc(Cl)cn3)n2)n1 [(5-Chloro-pyridin-2-yl)-[6-(6-methoxy-pyridin-2-yl)-pyrazin-2-yl]-amine]
pIC50: 4.52 to 5.52

Fc1ccc(Nc2cncc(-c3ccccn3)n2)nc1 [(5-Fluoro-pyridin-2-yl)-(6-pyridin-2-yl-pyrazin-2-yl)-amine]
pIC50: 6.00 to 7.30 and 5.52 to 6.00

Cc1ccnc(-c2cncc(Nc3ccc(F)cn3)n2)c1 [(5-Fluoro-pyridin-2-yl)-[6-(4-methyl-pyridin-2-yl)-pyrazin-2-yl]-amine]
pIC50: 6.00 to 7.30

Fc1ccc(Nc2cncc(-c3cc(N4CCCC4)ccn3)n2)nc1 [(5-Fluoro-pyridin-2-yl)-[6-(4-pyrrolidin-1-yl-pyridin-2-yl)-pyrazin-2-yl]-amine]
pIC50: 4.52 to 5.52

Cc1ccc(-c2cncc(Nc3ccc(F)cn3)n2)nc1 [(5-Fluoro-pyridin-2-yl)-[6-(5-methyl-pyridin-2-yl)-pyrazin-2-yl]-amine]
pIC50: 4.52 to 5.52

c1ccc(-c2cncc(Nc3cc(-c4ccco4)n[nH]3)n2)nc1 [(5-Furan-2-yl-2H-pyrazol-3-yl)-(6-pyridin-2-yl-pyrazin-2-yl)-amine]
pIC50: 4.52 to 5.52

c1ccc(-c2cncc(Nc3ccc(-c4ccco4)cn3)n2)nc1 [(5-Furan-2-yl-pyridin-2-yl)-(6-pyridin-2-yl-pyrazin-2-yl)-amine]
pIC50: 6.00 to 7.30

Reference: patent publication US7642354B2, “Polycyclic pyrazines as potassium ion channel modulators” (Icagen, Inc., priority 2004, dated 2010)
